Molecular target: T1, Kv7.2 (Homo sapiens, UniProt O43526)
T1 construct: expressed in transfected cells
Assay: Activation of Kv7.2 (in vitro assay, concentration response curve)
Assay type: cell-based
Settings: for Emax: Kv7.2 activation max %; for EC50: activation of Kv7.2
Summary of the method: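 EC50 is the half-maximal effective concentration, relative to the Emax observed for each compound in this in vitro assay. It was derived from concentration–response curves of the agonistic effect measured over a series of concentrations.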

[2H]C([2H])(NC(=O)NCc1ccnc(OC(F)F)c1)C1CCC1 [Example 125, 1-[cyclobutyl(dideuterio)methyl]-3-[[2-(difluoromethoxy)pyridin-4-yl]methyl]urea]
Emax: 62%
EC50: 750 nM

Cc1cccc(NC(=O)NCc2ccnc(OC(F)F)c2)c1 [Example 126, 1-[[2-(difluoromethoxy)pyridin-4-yl]methyl]-3-(3-methylphenyl)urea]
Emax: 50%
EC50: 650 nM

COc1cc(CNC(=O)N[C@H]2C[C@H](C(F)(F)F)C2)ccn1 [Example 128, 1-[(2-methoxypyridin-4-yl)methyl]-3-[(1r,3r)-3-(trifluoromethyl)cyclobutyl]urea]
Emax: 75%
EC50: 5360 nM

COc1cc(CNC(=O)NC23CCC(F)(CC2)CC3)ccn1 [Example 129, 1-(4-fluoro-1-bicyclo[2.2.2]octanyl)-3-[(2-methoxypyridin-4-yl)methyl]urea]
Emax: 53%
EC50: 4970 nM

O=C(NCc1ccnc(OC(F)F)c1)NC12CCC(CC1)CC2 [Example 131, 1-(1-bicyclo[2.2.2]octanyl)-3-[[2-(difluoromethoxy)pyridin-4-yl]methyl]urea]
Emax: 61%
EC50: 170 nM

O=C(NCc1ccnc(OC(F)F)c1)Nc1cccc(CF)c1 [Example 132, 1-[[2-(difluoromethoxy)pyridin-4-yl]methyl]-3-[3-(fluoromethyl)phenyl]urea]
Emax: 43%
EC50: 1070 nM

O=C(NCc1ccnc(OC(F)F)c1)N[C@@H]1CC[C@@H]2[C@H]1C2(F)F [Example 133, 1-[(1R,2R,5R)-6,6-difluoro-2-bicyclo[3.1.0]hexanyl]-3-[[2-(difluoromethoxy)pyridin-4-yl]methyl]urea]
Emax: 62%
EC50: 600 nM

O=C(NCc1ccnc(OC(F)F)c1)N[C@H](C1CC1)C(F)(F)F [Example 134, 1-[(1R)-1-cyclopropyl-2,2,2-trifluoroethyl]-3-[[2-(difluoromethoxy)pyridin-4-yl]methyl]urea]
Emax: 43%
EC50: 550 nM

O=C(NCc1ccnc(OC(F)F)c1)N[C@@H](C1CC1)C(F)(F)F [Example 135, 1-[(1S)-1-cyclopropyl-2,2,2-trifluoroethyl]-3-[[2-(difluoromethoxy)pyridin-4-yl]methyl]urea]
Emax: 68%
EC50: 1110 nM

O=C(NCc1ccnc(OC(F)F)c1)N[C@H]1C[C@H](C(F)F)C1 [Example 136, 1-[[2-(difluoromethoxy)pyridin-4-yl]methyl]-3-[(1r,3r)-3-(difluoromethyl)cyclobutyl]urea]
Emax: 50%
EC50: 280 nM

O=C(NCc1ccnc(OC(F)F)c1)N[C@H]1C[C@@H](C(F)F)C1 [Example 137, 1-[[2-(difluoromethoxy)pyridin-4-yl]methyl]-3-[(1s,3s)-3-(difluoromethyl)cyclobutyl]urea]
Emax: 48%
EC50: 2410 nM

O=C(NCc1ccnc(OC(F)F)c1)N[C@H]1CCCC(F)(F)C1 [Example 140, 1-[(1S)-3,3-difluorocyclohexyl]-3-[[2-(difluoromethoxy)pyridin-4-yl]methyl]urea]
Emax: 42%
EC50: 100 nM

CC1(NC(=O)NCc2ccnc(OC(F)F)c2)CCC(F)(F)C1 (stereo not shown) [Example 142, 1-[[2-(difluoromethoxy)pyridin-4-yl]methyl]-3-(3,3-difluoro-1-methylcyclopentyl)urea]
Emax: 40%
EC50: 1030 nM

CC1(NC(=O)NCc2ccnc(OC(F)F)c2)CCC(F)(F)CC1 [Example 143, 1-[[2-(difluoromethoxy)pyridin-4-yl]methyl]-3-(4,4-difluoro-1-methylcyclohexyl)urea]
Emax: 40%
EC50: 1050 nM

O=C(NCc1ccnc(OC(F)F)c1)N[C@H]1CC[C@@H](C(F)(F)F)C1 [Example 144, 1-[[2-(difluoromethoxy)pyridin-4-yl]methyl]-3-[(1S,3R)-3-(trifluoromethyl)cyclopentyl]urea]
Emax: 48%
EC50: 220 nM

O=C(Nc1cccc(Cl)c1)N[C@@H](CO)c1ccnc(OCC(F)(F)F)c1 [Example 145, 1-(3-chlorophenyl)-3-[(1R)-2-hydroxy-1-[2-(2,2,2-trifluoroethoxy)pyridin-4-yl]ethyl]urea]
Emax: 58%
EC50: 80 nM

O=C(NCc1ccnc(OC(F)F)c1)N[C@@H]1CC[C@H](C(F)(F)F)C1 [Example 146, 1-[[2-(difluoromethoxy)pyridin-4-yl]methyl]-3-[(1R,3S)-3-(trifluoromethyl)cyclopentyl]urea]
Emax: 68%
EC50: 160 nM

O=C(NCc1ccnc(OC(F)F)c1)NC1CCCCC1(O)C(F)(F)F (stereo not shown) [Example 147, 1-[[2-(difluoromethoxy)pyridin-4-yl]methyl]-3-[2-hydroxy-2-(trifluoromethyl)cyclohexyl]urea]
Emax: 56%
EC50: 540 nM

O=C(NCc1ccnc(OC(F)F)c1)N[C@@H]1CCCC(F)(F)C1 [Example 149, 1-[(1R)-3,3-difluorocyclohexyl]-3-[[2-(difluoromethoxy)pyridin-4-yl]methyl]urea]
Emax: 43%
EC50: 240 nM

O=C(Nc1cccc(Cl)c1F)NC(CO)c1ccnc(OCC(F)(F)F)c1 (stereo not shown) [Example 150, 1-(3-chloro-2-fluorophenyl)-3-[2-hydroxy-1-[2-(2,2,2-trifluoroethoxy)pyridin-4-yl]ethyl]urea]
Emax: 73%
EC50: 80 nM

C[C@@H](F)COc1cc(CNC(=O)NC23CCC(F)(CC2)CC3)ccn1 [Example 151, 1-(4-fluoro-1-bicyclo[2.2.2]octanyl)-3-[[2-[(2R)-2-fluoropropoxy]pyridin-4-yl]methyl]urea]
Emax: 42%
EC50: 650 nM

O=C(NCc1ccnc(OC(F)F)c1)NC(C1CCC1)C(F)(F)F (stereo not shown) [Example 152, 1-(1-cyclobutyl-2,2,2-trifluoroethyl)-3-[[2-(difluoromethoxy)pyridin-4-yl]methyl]urea]
Emax: 64%
EC50: 140 nM

O=C(NCc1ccnc(C(F)(F)F)c1)NC12CC(F)(C1)C2 [Example 153, 1-(3-fluoro-1-bicyclo[1.1.1]pentanyl)-3-[[2-(trifluoromethyl)pyridin-4-yl]methyl]urea]
Emax: 41%
EC50: 7270 nM

C[C@H](F)COc1cc(CNC(=O)NC23CCC(F)(CC2)CC3)ccn1 [Example 156, 1-(4-fluoro-1-bicyclo[2.2.2]octanyl)-3-[[2-[(2S)-2-fluoropropoxy]pyridin-4-yl]methyl]urea]
Emax: 50%
EC50: 560 nM

O=C(NCc1ccnc(OCC(F)(F)F)c1)NC1CC(F)(F)C1 [Example 157, 1-(3,3-difluorocyclobutyl)-3-[[2-(2,2,2-trifluoroethoxy)pyridin-4-yl]methyl]urea]
Emax: 50%
EC50: 380 nM

O=C(NCc1ccnc(CC(F)(F)F)c1)NC12CC(F)(C1)C2 [Example 159, 1-(3-fluoro-1-bicyclo[1.1.1]pentanyl)-3-[[2-(2,2,2-trifluoroethyl)pyridin-4-yl]methyl]urea]
Emax: 67%
EC50: 5180 nM

CC(F)COc1cc(CNC(=O)NC23CC(F)(C2)C3)ccn1 (stereo not shown) [Example 160, 1-(3-fluoro-1-bicyclo[1.1.1]pentanyl)-3-[[2-(2-fluoropropoxy)pyridin-4-yl]methyl]urea]
Emax: 61%
EC50: 6310 nM

O=C(NCc1ccnc(OC(F)F)c1)Nc1cncc(Cl)c1 [Example 161, 1-(5-chloropyridin-3-yl)-3-[[2-(difluoromethoxy)pyridin-4-yl]methyl]urea]
Emax: 43%
EC50: 1050 nM

O=C(NCc1ccnc(OCC(F)(F)F)c1)N[C@H]1C[C@H](F)C1 [Example 162, 1-((1r,3r)-3-fluorocyclobutyl)-3-[[2-(2,2,2-trifluoroethoxy)pyridin-4-yl]methyl]urea]
Emax: 50%
EC50: 190 nM

C[C@H]1C[C@H](NC(=O)NCc2ccnc(OC(F)F)c2)C1 [Example 163, 1-[[2-(difluoromethoxy)pyridin-4-yl]methyl]-3-((1r,3r)-3-methylcyclobutyl)urea]
Emax: 83%
EC50: 240 nM

O=C(NCc1ccnc(OCF)c1)Nc1cccc(Cl)c1 [Example 164, 1-(3-chlorophenyl)-3-[[2-(fluoromethoxy)pyridin-4-yl]methyl]urea]
Emax: 78%
EC50: 1720 nM

O=C(NCc1ccnc(OC(F)F)c1)NC1COC(C2CC2)C1 (stereo not shown) [Example 166, 1-(5-cyclopropyloxolan-3-yl)-3-[[2-(difluoromethoxy)pyridin-4-yl]methyl]urea]
Emax: 66%
EC50: 3330 nM

O=C(NCc1ccnc(OCC(F)(F)F)c1)NC12CC(F)(C1)C2 [Example 168, 1-(3-fluoro-1-bicyclo[1.1.1]pentanyl)-3-[[2-(2,2,2-trifluoroethoxy)pyridin-4-yl]methyl]urea]
Emax: 59%
EC50: 210 nM

O=C(NCc1ccnc(OC(F)F)c1)N[C@@H]1C[C@@H]2[C@H](C1)C2(F)F [Example 169, 1-[[2-(difluoromethoxy)pyridin-4-yl]methyl]-3-[(1R,3s,5S)-6,6-difluoro-3-bicyclo[3.1.0]hexanyl]urea]
Emax: 69%
EC50: 340 nM

O=C(NCc1ccnc(OC(F)F)c1)N[C@@H]1[C@H]2CCC(F)(F)[C@H]21 [Example 170, 1-[(1R,5S,6R)-2,2-difluoro-6-bicyclo[3.1.0]hexanyl]-3-[[2-(difluoromethoxy)pyridin-4-yl]methyl]urea]
Emax: 59%
EC50: 80 nM

O=C(NCc1ccnc(OC(F)F)c1)NC1(C2CC(F)(F)C2)CC1 [Example 171, 1-[1-(3,3-difluorocyclobutyl)cyclopropyl]-3-[[2-(difluoromethoxy)pyridin-4-yl]methyl]urea]
Emax: 48%
EC50: 360 nM

O=C(NCc1ccnc(OC(F)F)c1)NC1CC1(F)F (stereo not shown) [Example 173, 1-(2,2-difluorocyclopropyl)-3-[[2-(difluoromethoxy)pyridin-4-yl]methyl]urea]
Emax: 57%
EC50: 4400 nM

O=C(NCc1ccnc(OC(F)F)c1)N[C@H]1[C@@H]2CCC(F)(F)[C@@H]21 [Example 174, 1-[(1S,5R,6S)-2,2-difluoro-6-bicyclo[3.1.0]hexanyl]-3-[[2-(difluoromethoxy)pyridin-4-yl]methyl]urea]
Emax: 51%
EC50: 200 nM

From US20250074901A1, “NOVEL HETEROARYL COMPOUNDS” (ICAGEN, LLC, priority 2021, published 2025)
